Assays:
[1] = system: HIV-1 reverse transcriptase; test: HIV-1 reverse transcriptase activity in culture supernatant of infected Sup T1 cells; assay type: cell-based; details: 300 μM (adenosine and adenine 900 μM), 6 h pre-treatment, 96 h post-infection; average of triplicates
Protocol: Sup T1 cells were treated with 2-5A or a phosphorothioate/phosphodiester derivative at 300 μM for 6 hours and then infected with HIV-1 at a multiplicity of infection (M.O.I) of approximately 0.1. Adenosine and adenine were tested at 900 μM. At 96 hours post-infection, culture supernatant was removed and HIV-1 RT activity was assayed in triplicate as described by Henderson et al., Virology 182:186-198 (1991). Briefly in this method, 25 μl of culture supernatant was added to a 50 μl cocktail containing 50 mM Tris (pH 8.0), 20 mM dithiothreitol, 10 mM MgCl2, 60 mM NaCl, 0.05 Nonidet p-40, 5 μg/ml oligodeoxythymidylic acid, 10 μg/ml polyriboadenylic acid, 10 μM deoxythymidine triphosphate and 1 mCi [^32 p]thymidine 5'-triphosphate. The mixture was incubated at 37° C. for 2 hours. Fifty microliters of the cocktail were then spotted onto diethylaminoethyl (DEAE) paper, dried, washed with 2× SSC solution (three times for 10 minutes each time) and 95% ethanol (two times for 5 minutes each time), dried and exposed to radiographic film for 18 to 24 hours at -80° C. The filters were cut and final quantitation was determined by scintillation spectrometry.

RNase L = test: rRNA cleavage assay in L929 cell extracts (activation of RNase L); assay type: biochemical; details: 1 h at 30° C., > = no activation up to this concentration
Protocol: FIG. 2A represents the results of a ribosomal RNA cleavage assay with 2',5'-phosphorothioate/phosphodiester trimer core 2-5A derivatives. The procedure was performed according to the method of Kariko et al., Biochemistry 26: 7127-7135 (1987). 2-5A oligomer (phosphodiester internucleotide linkage) is also included for comparison. L929 cell extracts were incubated in the absence (lane 1) or presence of p3 A3 at 10^-8 M (lane 2), ARp *ApA at 10^-6 M (lane 3), ASp *ApA at 10^-6 M (lane 4), ApARp *A at 10^-6 M (lane 5), ApASp *A at 10^-6 M (lane 6) or A3 at 10^-6 M (lane 7). The positions of 28S and 18S rRNA are shown; the arrows indicate the positions of the well-characterized specific cleavage products (SCP) of RNase L.
FIG. 2B represents the results of a ribosomal RNA cleavage assay performed according to the method of FIG. 2A with 2',5'-phosphorothioate/phosphodiester trimer 5'-monophosphate derivatives. L929 cell extracts were incubated in the absence (lane 1) or presence of p3 A3 at 2×10^-9 M (lane 2), pA3 at 10^-6 M (lane 3), pARp *ApA at 10^-7 M (lane 4), pASp *ApA at 10^-7 M (lane 5), pApARp *A at 2×10^-9 M (Lane 6), pApASp *A at 10^-7 M (lane 7).
FIG. 3A represents the results of a ribosomal RNA cleavage assay performed according to the method of FIG. 2A with 2',5'-phosphorothioate/phosphodiester tetramer core 2-5A derivatives. 2-5A oligomer (phosphodiester internucleotide linkage) is also included for comparison. L929 cell extracts were incubated in the absence (lane 1) or presence of p3 A4 at 10^-8 M (lane 2), A4 at 10^-5 M (lane 3), ARp *ApApA at 10^-5 M (lane 4), ASp *ApApA at 10^-5 M (lane 5), ApARp *ApA at 10^-5 M (lane 6), ApASp *ApA at 10^-5 M (lane 7), ApApARp *A at 10^-5 M (lane 8) or ApApASp *A at 10^-5 M (lane 9).
FIG. 3B represents the results of a ribosomal RNA cleavage assay performed according to the method of FIG. 2A with 2',5'-phosphorothioate/phosphodiester tetramer 5'-monophosphate derivatives. L929 cell extracts were incubated in the absence (lane 1) or presence of p3 A4 at 10^-8 M (lane 2), pA4 at 10^-6 M (lane 3), pARp *ApApA at 10^-6 M (lane 4), pASp *ApApA at 10^-6 M (lane 5), pApARp *ApA at 10^-8 M (lane 6), pApASp *ApA at 10^-5 M (lane 7), pApApARp *A at 10^-7 M (lane 8) or pApApASp *A at 10^-7 M (lane 9).
Activation of RNase L by the phosphorothioate/phosphodiester trimer and tetramer 2-5A derivatives was also measured in a rRNA cleavage assay using L929 cell extracts according to the method of Kariko et al. (1987), supra, in which extracts of L929 cells were incubated for 1 h at 30° C. in the presence or absence of 2-5A or 2-5A derivative. […] Authentic p3 A3 was active at 1×10^-8 M (FIG. 2A, lane 2). The corresponding 5'-monophosphates, pARp *ApA, pASp *ApA and pApARp *A, activated at 1×10^-7 M, 1×10^-7 M, and 2×10^-9 M, respectively (FIG. 2B, lanes 4-6), as compared with pA3 which was active at 1×10^-6 M (lane 3).

HIV-1 strain IIIB = test: Inhibition of HIV-1-induced syncytia formation (infected centers assay); assay type: cell-based; details: for inhibition of syncytia formation (in words): 3×10^-4 M (adenosine 9×10^-4 M); for inhibition of HIV-1-induced syncytia formation: 3×10^-4 M, PBL infected with HIV-1 IIIB, Sup T1 cells, read at 72 h
Excerpt: FIG. 5A represents the results of an assay performed according to the method of Henderson et al., Virology 182: 186-198 (1991), indicating the inhibition of HIV-1 (IIIB)-induced syncytia formation by adenosine, 2-5A trimer or tetramer core or 2',5'- phosphorothioate/phosphodiester trimer derivatives: ARp *ApA, ASp *ApA, ApARp *A, ApASp *A, ARp *ApApA, ASp *ApApA, ApARp *ApA, ApASp *ApA, ApApARp *A, ApApASp *A.
FIG. 5B is the results of an assay performed according to the method of FIG. 5A with a 2',5'-phosphorothioate/phosphodiester tetramer derivative of 2-5A core.
The infected centers assay as described by Henderson et al., Virology 182: 186-198 (1991), was used to measure the ability of the phosphorothioate/phosphodiester derivatives of 2-5A trimer and tetramer cores to inhibit HIV-1 induced syncytia formation, an indicator of HIV-1 replication in T cells. Freshly isolated peripheral blood lymphocytes (PBL) were treated with 2-5A or derivatives for 2 h and infected with HIV-1 strain IIIB at a m.o.i. of approximately 0.1. The infected PEL were maintained in RPMI-1640 medium supplemented with 10% (v/v) heat-inactivated fetal calf serum at 37° C. in a humidified 5% CO2 in air atmosphere. After 48 h, the cells were washed twice in Hank's balaned salt solution, serially diluted and seeded into multiple wells of a 96-well microtiter plate. Immediately, 2×10^5 exponentially growing Sup T1 cells were added to each well; Sup T1 cells readily form a syncytium with a cell which is productively infected with HIV-1. The wells were examined daily for the presence of syncytia, using a tissue culture microscope. The first signs of syncytia formation can be seen in 12 h, with some complete syncytia developing by 24 h. Final results were read at 72 h. Each syncytium was counted as a single infected cell. The number of syncytia per seeded cell is determined and expressed as an infected center per infected cell. In the control (no 2-5A derivative added), 100% syncytia formation was equivalent to 12±3 syncytia per 200 HIV-1 infected cells.

serum phosphodiesterases = test: Stability of 2-5A core derivatives to serum phosphodiesterase; assay type: in vitro ADME, fetal calf; details: 300 μM, 37° C.; for Hydrolysis Products: 10% fetal calf serum, 6 h, identified by HPLC; for % Hydrolysis: RPMI-1640 + 10% fetal calf serum, 6 h (A2, A3: 20 min)
Protocol: The stability of authentic 2-5A and phosphorothioate/phosphodiester trimer and tetramer core derivatives (300 μM) was determined by incubation in 200 μL of RPMI-1640 medium supplemented with 10% fetal calf serum in 5% CO2 -in-air at 37° C. Aliquots (30 μL) were removed at time zero and 6 hours. The hydrolysis products were identified by HPLC as described in Kariko et al. , Biochemistry 26: 7127-7135 (1987).
No hydrolysis of the phosphorothioate/phosphodiester trimer core derivatives was observed. However, the phosphorothioate/phosphodiester tetramer core derivatives were hydrolyzed from the 5'- or 2',3'-terminus, depending on the location of the phosphorothioate-substituted internucleotide linkage.

[2] = system: 2-5A synthetase/RNase L pathway; HHV-6; details: CFS patients, cited from earlier work

Row | Substance | Percent Inhibition of HIV-1 Reverse Transcriptase [1] [%] | concentration at which RNase L is activated to cleave rRNA to SCP (RNase L) [nM] | inhibition of syncytia formation (in words) (HIV-1 strain IIIB) | inhibition of HIV-1-induced syncytia formation (HIV-1 strain IIIB) [%] | Hydrolysis Products (serum phosphodiesterases) | % Hydrolysis (serum phosphodiesterases) [%] | HHV-6 activity following therapy ([2]; p<0.01) | mean basal latent 2-5A synthetase level in PBMC extracts following therapy ([2]; controls 2035±325, P<0.001) | 2-5A synthetase/RNase L pathway following therapy ([2]; in temporal association with clinical and neuropsychological improvement)
1 | Adenylyl-(2',5')-(PR)-P-thioadenylyl-(2',5')-adenosine [ApARp *A] | 31 | 1000 | most efficient inhibitors of HIV-1 induced syncytia formation | 100 | not hydrolyzed | 0 | – | – | –
2 | Adenylyl-(2',5')-(PS)-P-thioadenylyl-(2',5')-adenosine [ApASp *A] | 78 | > 1000 | most efficient inhibitors of HIV-1 induced syncytia formation | 78 | not hydrolyzed | 0 | – | – | –
3 | poly (I)-poly (C12 U) | – | – | – | – | – | – | significant decrease in HHV-6 activity | 610±220 picomoles 2-5A/mg protein/hour | down regulation of the 2-5A synthetase/RNase L pathway
